# Results as given in the supplement of paper PMC10307832.
# Experiments:
# Assay in all cases: relative viability (nuclei count vs DMSO), 5 days (fraction); higher = more cells survive
# [1] = compound: CC1=CC(=CC=C1)NC2=NC(=CS2)C3=CC=NC=C3 + Nc1nc2[nH]cc(CCc3ccc(C(=O)N[C@@H](CCC(=O)O)C(=O)O)cc3)c2c(=O)[nH]1 [Pemetrexed] (partner 0.2 µM)
# Summary of the method: (§1)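 Nuclei were stained with Hoechst during a one-step fixation (final 0.05% Triton X-100, 1% formaldehyde, 1 ug/ml Hoechst) carried out 5 days after dosing, then counted on 4× images. The cells, lung cancer lines in 1536-well plates, had been dosed by pin tool the day after seeding with one drug alone or a fixed anchor-drug dose plus five library-drug doses (not always all listed) in √10 steps. Relative viability is the nuclei count in treated wells divided by that in vehicle wells, and each value is the median of duplicate plates.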
# Masitinib + Trametinib = compound: Cc1ccc(NC(=O)c2ccc(CN3CCN(C)CC3)cc2)cc1Nc1nc(-c2cccnc2)cs1 [Masitinib] + CC(=O)Nc1cccc(-n2c(=O)n(C3CC3)c(=O)c3c(Nc4ccc(I)cc4F)n(C)c(=O)c(C)c32)c1 [Trametinib] (partner 0.02 µM)
# Summary of the method: as §1
# Masitinib + Foretinib = compound: Cc1ccc(NC(=O)c2ccc(CN3CCN(C)CC3)cc2)cc1Nc1nc(-c2cccnc2)cs1 [Masitinib] + COc1cc2c(Oc3ccc(NC(=O)C4(C(=O)Nc5ccc(F)cc5)CC4)cc3F)ccnc2cc1OCCCN1CCOCC1 [Foretinib] (partner 0.25 µM)
# Summary of the method: as §1
# Masitinib + Pemetrexed = compound: Cc1ccc(NC(=O)c2ccc(CN3CCN(C)CC3)cc2)cc1Nc1nc(-c2cccnc2)cs1 [Masitinib] + Nc1nc2[nH]cc(CCc3ccc(C(=O)N[C@@H](CCC(=O)O)C(=O)O)cc3)c2c(=O)[nH]1 [Pemetrexed] (partner 0.2 µM)
# Summary of the method: as §1
Cell Line,relative viability ([1]; first compound 0.08 µM),relative viability ([1]; first compound 0.253 µM),relative viability ([1]; first compound 0.8 µM),relative viability ([1]; first compound 2.53 µM),relative viability ([1]; first compound 8 µM),relative viability (Masitinib + Trametinib; first compound 0.01 µM),relative viability (Masitinib + Trametinib; first compound 0.03162 µM),relative viability (Masitinib + Trametinib; first compound 0.1 µM),relative viability (Masitinib + Trametinib; first compound 0.3162 µM),relative viability (Masitinib + Trametinib; first compound 1 µM),relative viability (Masitinib + Foretinib; first compound 0.01 µM),relative viability (Masitinib + Foretinib; first compound 0.03162 µM),relative viability (Masitinib + Foretinib; first compound 0.1 µM),relative viability (Masitinib + Foretinib; first compound 0.3162 µM),relative viability (Masitinib + Foretinib; first compound 1 µM),relative viability (Masitinib + Pemetrexed; first compound 0.01 µM),relative viability (Masitinib + Pemetrexed; first compound 0.03162 µM),relative viability (Masitinib + Pemetrexed; first compound 0.1 µM),relative viability (Masitinib + Pemetrexed; first compound 0.3162 µM),relative viability (Masitinib + Pemetrexed; first compound 1 µM)
SK-LU-1,0.906,1.03,0.691,0.997,0.937,0.513,0.406,0.534,0.555,0.464,0.803,0.815,0.95,0.945,0.931,0.982,1,1.06,0.919,1.03
NCI-H1651,0.55,0.604,0.648,0.498,0.598,0.776,0.792,0.836,0.901,0.856,0.688,0.755,0.862,0.789,0.94,0.565,0.62,0.527,0.632,0.588
BEN,0.685,0.841,0.936,0.584,0.682,1.15,0.964,1.13,1.11,1.09,0.702,–,0.745,0.705,0.461,0.886,0.713,0.897,0.704,0.777
EMC-BAC-2,0.393,0.402,0.413,0.432,0.393,0.576,–,0.705,0.806,0.821,0.873,0.955,1.02,0.956,1.02,0.435,0.453,0.447,0.429,0.328
LXF-289,0.851,0.924,0.708,0.871,0.792,0.638,0.707,0.674,0.747,0.699,0.792,0.965,0.951,1.01,0.988,0.773,0.973,0.917,0.971,0.943
ABC-1,–,–,–,–,–,–,–,–,–,–,0.93,1.07,1.21,1.05,1,–,–,–,–,–
NCI-H358,0.153,0.19,0.175,0.176,0.166,0.148,0.13,0.135,0.121,0.122,0.769,0.81,0.784,0.625,0.591,0.16,0.169,0.167,0.163,0.178
NCI-H1355,0.866,0.778,0.791,0.75,0.692,0.439,0.35,0.497,0.329,0.468,0.914,0.797,1.04,0.758,0.968,0.9,0.92,1.1,0.853,1.08
EBC-1,–,–,–,–,–,–,–,–,–,–,0.112,0.096,0.108,0.0908,0.126,–,–,–,–,–
NCI-H2405,0.921,0.985,0.999,–,0.903,0.651,0.605,0.705,0.576,0.594,0.943,1.02,0.98,0.963,1.05,0.962,1.05,0.98,1.04,0.704
NCI-H2009,0.938,1.05,1,1,0.914,0.29,0.239,0.296,0.26,0.268,1.18,1.17,1.18,1.18,1.19,1,1.01,1.1,1.09,1.01
NCI-H1563,0.744,0.739,0.717,0.742,0.881,–,–,–,–,–,0.989,0.932,0.87,0.877,0.895,0.714,0.741,0.835,0.729,0.701
HCC-44,0.537,0.55,0.586,0.663,0.607,0.811,1.04,0.989,0.853,1.07,–,–,–,–,–,0.494,0.657,0.49,0.617,0.578
A549,–,–,–,–,–,–,–,–,–,–,0.881,0.826,1,0.898,1.23,–,–,–,–,–
NCI-H1299,–,–,–,–,–,–,–,–,–,–,1.04,1.06,1.09,1.09,1.07,–,–,–,–,–
NCI-H1792,0.453,0.682,0.651,0.67,0.784,0.427,0.307,0.37,0.503,0.498,–,–,–,–,–,0.846,0.525,0.93,0.548,0.707
IA-LM,–,–,–,–,–,–,–,–,–,–,1.24,1.09,1.13,1.12,1.36,–,–,–,–,–
NCI-H1648,0.639,0.626,0.749,0.673,0.633,0.523,0.436,0.414,–,0.442,–,–,–,–,–,0.635,0.891,0.75,–,0.7
